Measurements published in patent US11534377B2, “Hair growth agent” (KOBAYASHI PHARMACEUTICAL CO., LTD., priority 2016, dated 2022).

How the values were obtained:
[1] = system: hair papilla cell spheroids; experiment: Hair papilla cell proliferation test by three-dimensional culture (Example 6); type: cell-based, C57BL/6N mouse; details: final concentrations 0.05 wt %, 0.1 wt %, and 1 wt %, cultured for 3 days; FIG. 19
Protocol: In this Example, hair papilla cells prepared in a similar manner to Example 5 were seeded in a 96-well U-bottom microplate for cell culture (from Sumitomo Bakelite Co., Ltd.) at 6,000 cells/well and centrifuged with a plate centrifuge at room temperature and at a rotating speed of 1,000 rpm for 1 minute to yield three-dimensional hair papilla cell spheroids. The spheroids were cultured for 3 days by using each of test solutions A1 to A3 that were hair papilla cell culture media to which D-chiro-inositol dissolved in PBS was added at a final concentration of 0.05 wt %, 0.1 wt %, or 1 wt %; test solutions B1 to B3 that were hair papilla cell culture media to which myo-inositol dissolved in PBS was added at a final concentration of 0.05 wt %, 0.1 wt %, or 1 wt %; and a negative control that was a hair papilla cell culture medium to which PBS alone was added. The spheroids after culturing for 3 days were imaged by using a VHX2000 digital microscope (Keyence Corporation), and the area of the spheroids was calculated by using a digital microscope analysis tool. By calculating a spheroid area increase rate in the test solutions A1 to A3 and B1 to B3, relative to an area increase rate in the negative control as 100%, the proliferation of hair papilla cells in conditions further close to in vivo condition was quantified.

[2] = system: transplanted mice (hair follicles of haired mice transplanted into the back of nude mice); experiment: Hair shaft growth in nude mice transplanted with hair follicles of haired mice (Example 1); type: in vivo; details: for Hair shaft growth rate: topical 4 times per day
Protocol: Hair follicles (surgically prepared) of haired mice were transplanted into the back of nude mice (from Sankyo Labo Service Corporation, Inc.) to produce transplanted mice manipulated such that each hair can be distinguished and a plurality of hair cycles can be observed. First, a 50% ethanol aqueous solution (12.5 μl, not containing the agent) was applied to the transplanted mice 4 times per day during new hair growth in the first hair cycle to obtain reference data of a hair cycle. After the hair had shed following the end of the first hair cycle, a 50% ethanol aqueous solution (12.5 μl) containing a predetermined amount of the agent was applied to the mice 4 times per day to obtain data on effects of the agent. After the hair had shed following the end of the second hair cycle, a 50% ethanol aqueous solution (12.5 μl) containing the agent in the same amount as that in the second hair cycle was applied to the mice in a similar manner to the second hair cycle to obtain reproducibility data on effects of the agent. As the agent, D-chiro-inositol (from Wako Pure Chemical Industries Ltd.) and its stereoisomers as chiro-inositol, L-chiro-inositol (from Tokyo Chemical Industry Co., Ltd.), myo-inositol (from Wako Pure Chemical Industries Ltd.), allo-inositol (cis-1,2,3,4-trans-5,6-cyclohexaneheaxol) (from Tokyo Chemical Industry Co., Ltd.), epi-inositol (cis-1,2,3,4,5-trans-6-cyclohexanehexaol) (from Tokyo Chemical Industry Co., Ltd.), muco-inositol (cis-1,2,4,5-trans-3,6-cyclohexanehexaol) (from Tokyo Chemical Industry Co., Ltd.), and scyllo-inositol (cis-1,3,5-trans-2,4,6-cyclohexanehexaol) (from Tokyo Chemical Industry Co., Ltd.) were used. For each agent solution, the lengths of hair shafts were measured every 2 to 3 days, an average length of hair shafts that changed day by day was plotted as one dot at each time point in a graph, and a similar plotting was repeated for 3 to 4 mice. The results were shown in Tables 1 to 14 and FIGS. 1 to 14.

[3] = system: crab-eating macaque (Macaca fascicularis); experiment: New hair growth test in monkey (Example 4); type: in vivo; details: 1 wt % in 50% ethanol, 8 weeks
Excerpt: A crab-eating macaque (Macaca fascicularis) is a monkey (class: Mammalia, order: Primates, family: Cercopithecidae, genus: Macaca) that has many similarities to humans, such as the morphology of the temporomandibular joint, and is frequently employed as a laboratory animal for morphological studies and medication studies due to its easy breeding and rearing. The crab-eating macaque is known for the replacement of the body hair in a six-month cycle in a year. Among aged female monkeys that had babies repeatedly and aged male monkeys of low social status, individuals with observed symptoms of hair thinning or sparse hair emerge with low frequency. […] In this Example, to an aged crab-eating macaque (19 years of age, male) having sparse body hair of the head, a test solution A in which D-chiro-inositol (from Wako Pure Chemical Industries Ltd.) was dissolved in 50% ethanol at a concentration of 1 wt % and a test solution B in which myo-inositol was dissolved in 50% ethanol at a concentration of 1 wt % were applied every day to about 4 cm^2-sparse hair regions (2 cm×2 cm) in both left and right sides across the median line of the head of the macaque. The application (once/day, 150 μl) was performed over 8 weeks, and 50% ethanol was applied as a negative control. At the end of 8 weeks, hair shafts in the applied regions were cut with hair clippers while leaving 2 to 3 mm from pores toward the outside of the body, and the total number of hair protruded from the pores in the applied regions was counted. A new hair growth rate was calculated as an increase rate in the number of hair at the end of 8 weeks, relative to the number of hair protruded from pores in the same regions before the application at the start of the test as 100%.

[4] = 1 wt %, second hair cycle vs first hair cycle (vehicle)
[5] = 1 wt %, third hair cycle vs first hair cycle (vehicle)
[6] = 5 wt %, second hair cycle vs first hair cycle (vehicle)
[7] = 5 wt %, third hair cycle vs first hair cycle (vehicle)
[8] = 10 wt %, second hair cycle vs first hair cycle (vehicle)
[9] = 10 wt %, third hair cycle vs first hair cycle (vehicle)

SMILES: OC1C(O)C(O)C(O)C(O)C1O [D-chiro-inositol]
- Hair papilla cell spheroid area vs negative control [1]: increased significantly
- Hair shaft growth rate and hair shaft maximum length, difference from the reference data ([2]; 0.01 wt %): marginally significant differences
- Hair shaft growth rate ([2]; 0.01 wt % in 50% ethanol, second hair cycle): 0.30 ± 0.03 mm/day
- Hair shaft growth rate ([2]; 0.01 wt % in 50% ethanol, third hair cycle (reproducibility)): 0.40 ± 0.06 mm/day
- Hair shaft maximum length ([2]; 0.01 wt %, second hair cycle): 4.8 ± 0.4 mm
- Hair shaft maximum length ([2]; 0.01 wt %, third hair cycle (reproducibility)): 4.7 ± 0.3 mm
- Hair shaft growth rate ([2]; 0.1 wt % in 50% ethanol, second hair cycle): 0.30 ± 0.03 mm/day
- Hair shaft growth rate ([2]; 0.1 wt % in 50% ethanol, third hair cycle (reproducibility)): 0.40 ± 0.06 mm/day
- Hair growth activity ([2]; 0.1 wt %, growth rate not significantly different, maximum length increased significantly in third hair cycle): hair growth activity was shown
- Hair shaft maximum length ([2]; 0.1 wt %, second hair cycle): 4.7 ± 0.4 mm
- Hair shaft maximum length relative to reference data ([2]; 0.1 wt %, second hair cycle vs first hair cycle (vehicle)): 101%
- Hair shaft maximum length ([2]; 0.1 wt %, third hair cycle (reproducibility)): 4.8 ± 0.4 mm
- Hair shaft maximum length relative to reference data ([2]; 0.1 wt %, third hair cycle vs first hair cycle (vehicle)): 105%
- Hair shaft growth rate ([2]; 1 wt % in 50% ethanol, second hair cycle): 0.47 ± 0.01 mm/day
- Hair shaft growth rate ([2]; 1 wt % in 50% ethanol, third hair cycle (reproducibility)): 0.48 ± 0.04 mm/day
- Hair shaft maximum length ([2]; 1 wt %, second hair cycle): 5.7 ± 0.4 mm
- Hair shaft growth rate relative to reference data [2, 4]: 121%
- Hair shaft maximum length relative to reference data [2, 4]: 110%
- Hair shaft maximum length ([2]; 1 wt %, third hair cycle (reproducibility)): 6.0 ± 0.4 mm
- Hair shaft growth rate relative to reference data [2, 5]: 123%
- Hair shaft maximum length relative to reference data [2, 5]: 116%
- Hair shaft growth rate ([2]; 5 wt % in 50% ethanol, second hair cycle): 0.46 ± 0.04 mm/day
- Hair shaft growth rate ([2]; 5 wt % in 50% ethanol, third hair cycle (reproducibility)): 0.49 ± 0.07 mm/day
- Hair shaft maximum length ([2]; 5 wt %, second hair cycle): 5.1 ± 0.3 mm
- Hair shaft growth rate relative to reference data [2, 6]: 128%
- Hair shaft maximum length relative to reference data [2, 6]: 116%
- Hair shaft maximum length ([2]; 5 wt %, third hair cycle (reproducibility)): 5.1 ± 0.4 mm
- Hair shaft growth rate relative to reference data [2, 7]: 136%
- Hair shaft maximum length relative to reference data [2, 7]: 116%
- Hair shaft growth rate ([2]; 10 wt % in 50% ethanol, second hair cycle): 0.46 ± 0.06 mm/day
- Hair shaft growth rate ([2]; 10 wt % in 50% ethanol, third hair cycle (reproducibility)): 0.63 ± 0.05 mm/day
- Hair shaft growth rate and hair shaft maximum length relative to the reference data ([2]; 10 wt %, 5 wt %, or 1 wt % as the agent): increased significantly
- Hair shaft maximum length ([2]; 10 wt %, second hair cycle): 5.6 ± 0.5 mm
- Hair shaft growth rate relative to reference data [2, 8]: 154%
- Hair shaft maximum length relative to reference data [2, 8]: 142%
- Hair shaft maximum length ([2]; 10 wt %, third hair cycle (reproducibility)): 5.9 ± 0.5 mm
- Hair shaft growth rate relative to reference data [2, 9]: 210%
- Hair shaft maximum length relative to reference data [2, 9]: 149%
- Hair shaft thickness in applied region vs test solution B and negative control ([3]; data not shown): remarkably thicker
- New hair growth rate ([3]; once/day 150 μl, sparse hair region of head, number of hair before application = 100%): 175.9%
